In patent publication US10179767B2 (GENENTECH, INC., priority 2015, dated 2019):
Counter-ions that a name gives are not always drawn.

Biological target: T1, hNav1.7 (Homo sapiens, UniProt Q15858)
T1 construct: expressed in transfected cells
Assay: Tritiated sulfonamide binding to membranes from cells expressing hNav1.7 and the β1 subunit (Nav 1.7 ligand binding assay, competitive)
Conditions: competition with 100 pM [3H]compound, room temperature, 18 h
Protocol: Tritiated Sulfonamide Binding to Membranes Isolated from Cells that Heterologously Express hNav1.7 and the β1 Subunit
Preparation of membranes containing recombinantly expressed sodium channels: Frozen recombinant cell pellets were thawed on ice and diluted to 4 times the cell pellet weight with ice cold 50 mM Tris HCl, pH 7.4 buffer. The cell suspensions were homogenized on ice using a motorized glass dounce homogeniser. Homogenates were further diluted 8.4 times with ice cold 50 mM Tris HCl, pH 7.4 buffer and then centrifuged at 200×g at 4° C. for 15 min. The supernatants were collected and centrifuged at 10000×g at 4° C. for 50 min. The pellets were then re-suspended in 100 mM NaCl, 20 mM Tris HCl, pH 7.4 buffer containing 1% v/v protease inhibitors (Calbiochem) and re-homogenized on ice. The homogenized membranes were then processed through a syringe equipped with a 26 gauge needle. Protein concentrations were determined by Bradford Assay and the membranes were stored at −80° C.
Radioligand Binding Studies:
Saturation experiments. A competitive NaV1.7 inhibitor having a methyl group was tritiated. Three tritiums were incorporated in place of methyl hydrogens to generate [^3H]compound. Binding of this radioligand was preformed in 5 mL borosilicate glass test tubes at room temperature. Binding was initiated by adding membranes to increasing concentrations of [^3H]compound in 100 mM NaCl, 20 mM Tris HCl, pH 7.4 buffer containing 0.01% w/v bovine serum albumin (BSA) for 18 h. Non-specific binding was determined in the presence of 1 μM unlabelled compound. After 18 h, the reactants were filtered through GF/C glass fiber filters presoaked in 0.5% w/v polyethylene imine Filters were washed with 15 mL ice cold 100 mM NaCl, 20 mM Tris HCl, pH7.4 buffer containing 0.25% BSA to separate bound from free ligand. [^3H]compound bound to filters was quantified by liquid scintillation counting.
Competitive Binding Experiments:
Binding reactions were preformed in 96-well polypropylene plates at room temperature for 18 h. In 360 μL, membranes were incubated with 100 pM [^3H]compound and increasing concentrations of Test Compound. Non-specific binding was defined in the presence of 1 μM unlabelled compound. Reactions were transferred and filtered through 96-well glass fiber/C filter plates presoaked with 0.5% polyethylene imine. The filtered reactions were washed 5 times with 200 μL ice cold buffer containing 0.25% BSA. Bound radioactivity was determined by liquid scintillation counting. Data Analysis: For saturation experiments, non-specific binding was subtracted from total binding to provide specific binding and these values were recalculated in terms of pmol ligand bound per mg protein. Saturation curves were constructed and dissociation constants were calculated using the single site ligand binding model: Beq=(Bmax*X)/(X+Kd), where Beq is the amount of ligand bound at equilibrium, Bmax is the maximum receptor density, Kd is the dissociation constant for the ligand, and X is the free ligand concentration. For competition studies percent inhibition was determined and IC50 values were calculated using a 4 parameter logistic model (% inhibition=(A+((B−A)/(1+((x/C)⨣D)))) using XLfit, where A and B are the maximal and minimum inhibition respectively, C is the IC50 concentration and D is the (Hill) slope.

T1 sequence (Q15858 whole entry): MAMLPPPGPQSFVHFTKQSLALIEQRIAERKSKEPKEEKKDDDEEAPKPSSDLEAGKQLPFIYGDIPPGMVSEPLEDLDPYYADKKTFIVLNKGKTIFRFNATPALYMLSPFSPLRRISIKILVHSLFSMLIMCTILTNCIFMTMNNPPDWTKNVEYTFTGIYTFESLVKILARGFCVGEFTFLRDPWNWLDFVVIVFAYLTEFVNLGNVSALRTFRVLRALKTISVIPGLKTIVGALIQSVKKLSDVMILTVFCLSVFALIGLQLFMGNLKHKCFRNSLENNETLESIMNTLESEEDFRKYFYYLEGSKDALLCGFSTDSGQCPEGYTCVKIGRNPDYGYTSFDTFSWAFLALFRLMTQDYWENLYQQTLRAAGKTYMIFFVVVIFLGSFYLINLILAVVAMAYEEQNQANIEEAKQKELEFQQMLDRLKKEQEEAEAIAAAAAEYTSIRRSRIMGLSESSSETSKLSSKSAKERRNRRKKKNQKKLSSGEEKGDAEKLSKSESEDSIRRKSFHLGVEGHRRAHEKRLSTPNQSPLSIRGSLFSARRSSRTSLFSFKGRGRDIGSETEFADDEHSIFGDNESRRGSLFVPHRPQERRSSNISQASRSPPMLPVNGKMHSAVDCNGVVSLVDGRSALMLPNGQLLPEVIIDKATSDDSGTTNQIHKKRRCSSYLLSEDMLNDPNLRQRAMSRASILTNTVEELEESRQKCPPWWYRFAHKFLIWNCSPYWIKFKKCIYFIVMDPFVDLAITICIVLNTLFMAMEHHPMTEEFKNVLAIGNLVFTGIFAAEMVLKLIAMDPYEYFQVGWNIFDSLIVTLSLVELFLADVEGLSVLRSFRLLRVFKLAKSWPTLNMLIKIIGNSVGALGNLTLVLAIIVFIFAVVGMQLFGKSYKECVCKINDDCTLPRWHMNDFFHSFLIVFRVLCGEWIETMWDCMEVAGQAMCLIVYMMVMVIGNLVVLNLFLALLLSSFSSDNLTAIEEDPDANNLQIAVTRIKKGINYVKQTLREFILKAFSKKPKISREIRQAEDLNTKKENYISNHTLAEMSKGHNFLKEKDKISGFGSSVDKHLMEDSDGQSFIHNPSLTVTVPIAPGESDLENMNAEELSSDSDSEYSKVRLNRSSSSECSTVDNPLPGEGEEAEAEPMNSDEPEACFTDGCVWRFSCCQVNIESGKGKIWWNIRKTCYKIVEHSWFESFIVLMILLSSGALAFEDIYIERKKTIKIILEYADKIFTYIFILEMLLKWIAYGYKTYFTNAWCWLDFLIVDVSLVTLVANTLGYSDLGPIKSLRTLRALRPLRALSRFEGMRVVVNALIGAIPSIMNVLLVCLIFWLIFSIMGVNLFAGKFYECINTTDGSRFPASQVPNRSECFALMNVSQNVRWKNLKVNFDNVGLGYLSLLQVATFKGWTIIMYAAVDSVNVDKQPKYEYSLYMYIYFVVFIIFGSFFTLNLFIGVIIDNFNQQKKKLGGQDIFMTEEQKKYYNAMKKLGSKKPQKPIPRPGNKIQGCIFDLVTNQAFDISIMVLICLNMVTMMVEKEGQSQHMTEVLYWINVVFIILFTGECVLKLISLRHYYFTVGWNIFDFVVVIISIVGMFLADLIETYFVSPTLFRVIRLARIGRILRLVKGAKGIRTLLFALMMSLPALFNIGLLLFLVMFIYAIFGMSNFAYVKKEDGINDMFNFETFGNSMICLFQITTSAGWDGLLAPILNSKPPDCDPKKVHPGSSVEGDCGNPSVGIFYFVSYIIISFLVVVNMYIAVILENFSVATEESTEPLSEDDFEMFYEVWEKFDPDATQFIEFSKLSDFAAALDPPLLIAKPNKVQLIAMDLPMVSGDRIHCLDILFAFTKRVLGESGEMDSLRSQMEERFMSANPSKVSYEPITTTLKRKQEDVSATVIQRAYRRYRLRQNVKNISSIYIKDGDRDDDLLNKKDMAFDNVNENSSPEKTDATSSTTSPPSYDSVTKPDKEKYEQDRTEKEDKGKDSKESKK
T1 sequence (Q07699 19-218 partner): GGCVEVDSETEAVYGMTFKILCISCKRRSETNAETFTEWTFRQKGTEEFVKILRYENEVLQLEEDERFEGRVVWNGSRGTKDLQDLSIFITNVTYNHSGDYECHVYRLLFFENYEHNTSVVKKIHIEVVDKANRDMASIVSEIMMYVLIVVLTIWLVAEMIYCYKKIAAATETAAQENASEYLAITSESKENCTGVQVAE

| SMILES | IC50 [nM] |
| --- | --- |
| C[C@@H]1[C@H](Oc2cc(F)c(C(=O)NS(C)(=O)=O)cc2C2CC2)CCCN1Cc1cc(Cl)cc(Cl)c1 [Example 52, 5-cyclopropyl-4-(((2R,3R)-1-(3,5-dichlorobenzyl)-2-methylpiperidin-3-yl)oxy)-2-fluoro-N-(methylsulfonyl)benzamide] | 2.4 |
| CC(c1cc(Cl)cc(Cl)c1)N1CCC2(CC1)CC(Oc1cc(F)c(C(=O)NS(C)(=O)=O)cc1C1CC1)C2 (stereo not shown) [Example 48, 5-cyclopropyl-4-((7-(1-(3,5-dichlorophenyl)ethyl)-7-azaspiro[3.5]nonan-2-yl)oxy)-2-fluoro-N-(methylsulfonyl)benzamide] | 9 |
| C[C@@H](c1ccc(F)cc1Cl)N1CCC(F)(COc2cc(F)c(C(=O)NS(C)(=O)=O)cc2C2CC2)CC1 (single isomer, unassigned) [Example 18] | 10 |
| O=C(NS(=O)(=O)C1CC1)c1cc(C2CC2)c(OCC2CCN(Cc3cc(Cl)cc(C(F)(F)F)n3)CC2)cc1F [Example 54] | 4.2 |
| C[C@@H](c1ccc(F)c(Cl)c1)N1CCC(F)(COc2cc(F)c(C(=O)NS(C)(=O)=O)cc2C2CC2)CC1 (single isomer, unassigned) [Example 26] | 4.7 |
| C[C@@H](c1cc(Cl)cc(Cl)c1)N1CCC(COc2cc(F)c(C(=O)NS(=O)(=O)C3(F)CC3)cc2C2CC2)CC1 [Example 57, (S)-4-((2-cyclopropyl-5-fluoro-4-(((1-fluorocyclopropyl)sulfonyl)carbamoyl)phenoxy)methyl)-1-(1-(3,5-dichlorophenyl)ethyl)piperidin-1-ium trifluoroacetate] | 8.6 |
| C[C@@H](c1ccc(Cl)c(F)c1)N1CCC(COc2cc(F)c(C(=O)NS(C)(=O)=O)cc2C2CC2)CC1 (single isomer, unassigned) [Example 40] | 6.6 |
| CS(=O)(=O)NC(=O)c1cc(C2CC2)c(O[C@H]2CN(Cc3ccc(F)cc3Cl)CC[C@@H]2F)cc1F (relative stereo) [Example 45, trans 4-((1-(2-chloro-4-fluorobenzyl)-4-fluoropiperidin-3-yl)oxy)-5-cyclopropyl-2-fluoro-N-(methylsulfonyl)benzamide] | 83 |
| COc1c(Cl)cc(Cl)cc1[C@H](C)N1CCC(COc2cc(F)c(C(=O)NS(C)(=O)=O)cc2C2CC2)CC1 (single isomer, unassigned) [Example 16] | 5.7 |
| COc1c(Cl)cc(Cl)cc1CN1CCC(COc2cc(F)c(C(=O)NS(C)(=O)=O)cc2C2CC2)CC1 [Example 14, 5-Cyclopropyl-4-((1-(3,5-dichloro-2-methoxybenzyl)piperidin-4-yl)methoxy)-2-fluoro-N-(methylsulfonyl)benzamide] | 6.5 |
| CC(c1cc(C(F)(F)F)cc(C2CC2)n1)N1CCC(COc2cc(F)c(C(=O)NS(=O)(=O)C3CC3)cc2C2CC2)CC1 (stereo not shown) [Example 51, 5-cyclopropyl-4-((1-(1-(6-cyclopropyl-4-(trifluoromethyl)pyridin-2-yl)ethyl)piperidin-4-yl)methoxy)-N-(cyclopropylsulfonyl)-2-fluorobenzamide] | 11 |
| C[C@H](c1cc(C(F)(F)F)cc(Cl)c1F)N1CCC(C#N)(COc2cc(F)c(C(=O)NS(C)(=O)=O)cc2C2CC2)CC1 (single isomer, unassigned) [Example 8] | 9.8 |
| CCS(=O)(=O)NC(=O)c1cc(C2CC2)c(OCC2CCN(Cc3cc(Cl)cc(Cl)c3OC)CC2)cc1F [Example 13, 5-Cyclopropyl-4-((1-(3,5-dichloro-2-methoxybenzyl)piperidin-4-yl)methoxy)-N-(ethylsulfonyl)-2-fluorobenzamide] | 4.1 |
| COC1(COc2cc(F)c(C(=O)NS(C)(=O)=O)cc2C2CC2)CCN([C@@H](C)c2cc(Cl)cc(Cl)c2)CC1 (single isomer, unassigned) [Example 5] | 9.2 |
| C[C@H](c1cc(Cl)cc(Cl)c1C#N)N1CCC(COc2cc(F)c(C(=O)NS(C)(=O)=O)cc2C2CC2)CC1 (single isomer, unassigned) [Example 1] | 8.8 |
| C[C@H](c1cc(F)cc(Cl)c1)N1CCC(F)(COc2cc(F)c(C(=O)NS(C)(=O)=O)cc2C2CC2)CC1 (single isomer, unassigned) [Example 25] | 2 |
